Key:
Assay type in all cases: cell-based, human
[1] = test system: NKX6.1/PDX1 double positive cells; experiment: NKX6.1/PDX1 library screen, early phase (compounds on top of bFGF based PE media, first seven days); conditions: concentration at which the fraction of NKX6.1/PDX1 double positive cells was enhanced more than 200% compared the PE media
Method: Human embryonic stem (hES) cells line SA121 and human induced pluripotent stem cells (hiPSC) chIPS4 (Cellectis) were grown in DEF-CS culture media (Cellectis) in T75 culture flasks.
After 24 hours the cells were washed with RPMI1640 and treated with 100 ng/ml Activin A (Peprotech #120-14E) in RPMI1640. […] Cells were maintained at 37° C. and 5% CO2 in a humidified incubator during the differentiation.
The DE cells were seeded at 200 000/cm^2 in 96 well optical plates (BD Bioscience), and PE differentiation using screening compounds was initiated the following day.
Cells were washed three times with PBS. […] Cells were washed five times and left in 200 μL PBS for imaging.
(§1) Imaging was performed using the InCell Analyzer 2000 (GE Healthcare). 4 fields per well with 10× objective were captured. The total cell number based in the DAPI counterstaining and the number of NKX6.1/PDX1 double positive cells was determined using InCell Developer Toolbox 1.8 (GE Healthcare). The fraction of NKX6.1/PDX1 double positive cells was normalized to the benchmark on each plate and the % effect was calculated. Values above 200% effect were categorized as hits.
The compounds within the bioactive library were tested at 1 uM and 0.1 uM. Compounds from the other libraries were tested at 10 uM and 1 uM. In a second candidate based screening approach, small molecules that target the main signalling pathways involved in pancreas development were included.
The library PE screening approach was divided into an early and a late phase (FIG. 1).
In the early phase, compounds were tested on top of the PE media for the first seven days of PE differentiation, and then the differentiation was continued for additional six days using PE media without compounds.
The screen was divided into an early and a late phase (FIG. 1). In the early phase, compounds were tested on top of the PE media for the first seven days of PE differentiation, and then continued for additional six days using PE media without compounds. In the late phase, DE cells were differentiated in the PE media for the first seven days. In the following six days compounds were tested on top of the PE media. Twelve positive control wells (PE media) and 12 negative control wells (PE media without bFGF) were included in each 96 well plate. Media change was performed daily.

[2] = test system: NKX6.1/PDX1 double positive cells; experiment: Candidate based PE screen 2 (after 4 days hit compound of screen 1, compounds in basal medium for last 10 days); conditions: cells first exposed to hit compound from screen 1 for 4 days, compounds added for last 10 days; FIG. 5
Method: Pluripotent stem (PS) cells were differentiated into definitive endoderm according to DE protocol (See general methods) and seeded in 96 well plates for screening. The pancreatic endoderm screen was divided into two parts. In screen 1, compounds were added to a basal medium (RPMI1640+0.1% PEST+12% KOSR) the first eight days of PE differentiation. […] In screen 2, cells were first differentiated for 4 days with the hit compounds from screen 1, then screening compounds were added the last 10 days to basal medium.
Imaging was performed using the InCell Analyzer 2000 (GE Healthcare). […] The total cell number based in the DAPI counterstaining and the number of NKX6.1/PDX1 double positive cells was determined using InCell Developer Toolbox 1.8 (GE Healthcare). The fraction of NKX6.1/PDX1 double positive cells was normalized to the benchmark on each plate and the % effect was calculated. […]

[3] = test system: NKX6.1/PDX1 double positive cells; experiment: Candidate based PE screen 1 (compounds in basal medium without bFGF, first eight days); conditions: compared to benchmark protocol (Ameri et al, 2010); hiPSC and hESC; FIG. 5
Method: Pluripotent stem (PS) cells were differentiated into definitive endoderm according to DE protocol (See general methods) and seeded in 96 well plates for screening. The pancreatic endoderm screen was divided into two parts. In screen 1, compounds were added to a basal medium (RPMI1640+0.1% PEST+12% KOSR) the first eight days of PE differentiation. Compounds were tested in 4 different time windows having 2 day increments and then cells were left to continue differentiation for another six days in the bFGF based published protocol (Ameri et al., 2010). In screen 2, cells were first differentiated for 4 days with the hit compounds from screen 1, then screening compounds were added the last 10 days to basal medium.
Human embryonic stem (hES) cells line SA121 and human induced pluripotent stem cells (hiPSC) chIPS4 (Cellectis) were grown in DEF-CS culture media (Cellectis) in T75 culture flasks. […]
as §1, with “4 fields per well with 10× objective were captured.” left out, “Values above 200% effect were categorized as hits.” left out

Row | SMILES | hit concentration (Concentration) [1] | further results
1 | O=c1cc(-c2cccc3c2Sc2ccccc2S3)oc(N2CCOCC2)c1 [ATM Kinase Inhibitor] | 10 µM | –
2 | NC(=O)c1ccc2[nH]c(-c3ccc(Oc4ccc(Cl)cc4)cc3)nc2c1 [Chk2 Inhibitor II] | 10 µM | –
3 | CC1=C2C[C@H]3[C@@H](CC=C4C[C@@H](O)CC[C@@]43C)[C@@H]2CC[C@]12O[C@@H]1C[C@H](C)CN[C@H]1[C@H]2C [Cyclopamine] | – | hit identification, candidate screen 2 [2]: hit compounds
4 | Cc1ccc2nc(NC(=O)CSc3nc4c(c(=O)n3-c3ccccc3)SCC4)sc2c1 [IWP2] | – | hit identification, candidate screen 2 [2]: hit compounds
5 | c1ccc2c(-c3cnn4cc(-c5ccc(N6CCNCC6)cc5)cnc34)ccnc2c1 [LDN-193189] | – | hit identification and most effective time window, candidate screen 1 [3]: most effective when added for the first 4 days followed by 4 days basal medium
6 | Fc1ccc(-c2nc3n(c2-c2ccncc2)CCS3)cc1 [SKF-86002] | 10 µM | –
7 | COc1ccc(-c2cnc3c(-c4ccsc4)cnn3c2)cc1 [VEGF Receptor 2 Kinase Inhibitor IV] | 10 µM | –

Reference: patent US10221392B2, “Generation of pancreatic endoderm from pluripotent stem cells using small molecules” (Novo Nordisk A/S, priority 2012, dated 2019)
